Measurements: patent US20190144368A1, “Compounds and compositions for biofilm prevention” (INHIBIO AS, priority 2016, published 2019)

Experiments:
[1] = NMR of cyclohexane-1,3-dione in aqueous solution (keto-enol tautomerism); assay type: physicochemical; details: NMR-data
Description: In one embodiment, the compounds of the composition are able to undergo keto-enol tautomerism. Particularly 1,3-cyclodions, such as 1,3-cyclohexanediones, particularly such diones wherein neither or maximum one substituents are present in the C-2 position, have been found favourable as they can undergo keto-enol tautomerism. NMR-data of cyclohexane-1,3-dione support that in aqueous solution this compound exists in a highly enolised form where electrons are delocalised between the C-1-oxygen/C-1, C-2 and C-3/C-3-oxygen thereby rendering the C-2 methylene protons relatively acidic. […] It is believed that the acidity of the C-2 protons affect the solubility of the compound, providing a higher solubility than e.g. similar 1,4-carbocyclic compounds.

[2] = system: Gram positive bacteria (three Staphylococcus aureus strains); assay: Biofilm formation in polystyrene microtiter plates (crystal violet, OD595), Gram positive bacteria; assay type: cell-based; details: one day at 37 °C
Procedure: All experiments were performed by using sterile 96-wells polystyrene microtiter plates (Nunc, Nuncleon, Roskilde, Denmark) under conditions promoting biofilm formation by the different bacterial genera. The Inhibio compound preparations of the invention; 1,3-cyclohexanedione, 1,4-cyclohexanedione, cyclopentanone, 5-ethylcyclohexane-1,3-dione and 5-methyl-1,3 cyclohexanedione 98% were solved directly in Tryptic Soy Broth (TSB) 1+1 or Liquid Microbiology Broth (LB) broth without NaCl (LB^wo/NaCl) to obtain the test concentrations, i.e. from 1 mg/ml to 10 mg/ml.
Three Staphylococcus aureus strains of animal origin were used in this study. All strains were stored at −80° C. in Brain Heart Infusion Broth (BHI) (Difco, BD, Franklin Lakes, N.J., USA) supplemented with 15% glycerine (Merck KGaA, Darmstadt, Germany) and were recovered on blood agar at 37.0±1.0° C. The bacterial cultures were then transferred into TSB and were incubated statically overnight at 37.0±1.0° C. to obtain an overnight working culture. A total of 2 μl of this suspension was transferred to each 96 wells of polystyrene microtiter plates (Nunc, Nuncleon, Roskilde, Denmark) containing 198 μl TSB 1+1 with dissolved Inhibio compounds in the following concentrations: 0 mg/ml, 1 mg/ml and 10 mg/ml for 1,3-cyclohexanedione; 0 mg/ml and 10 mg/ml for 1,4-cyclohexanedione; and 0 mg/ml, 1 mg/ml, 2 mg/ml and 10 mg/ml for 5-ethylcyclohexane-1,3-dione and 5-Methyl-1,3-cyclohexanedione in the total amount of broth. Three parallels of each strain were used and the microtiter plates were incubated statically for one day, at 37±1.0° C. After incubation, OD595 was measured in a microplate photometer (Multiscan EX; Thermo Fisher Scientific Inc, Waltham, Mass., USA) before the plates were gently washed three times with 290 μl tap water. The plates were dried in room temperature before addition of 220 μl 1% crystal violet (Sigma-Aldrich, St. Louis, Mo., USA). After 30 minutes incubation in room temperature, the plates were washed three times with tap water before the addition of 220 μl ethanol:acetone (70:30 w:w) to dissolve the bound dye. The plates were incubated for 10 minutes in room temperature before OD595 was measured after the bound dye was dissolved using ethanol:acetone. For each strain, the result was calculated by subtracting the median OD595 of the three parallels of the control (test broth only) from the median OD595 of the three parallels of sample. Further, the average result of all three Gram positive strains included in the study were calculated. Three independent experiments were performed and the average was evaluated.

Salmonella (one strain) = assay: Effect of increased temperature on 1,3-cyclohexanedione: biofilm formation after heating the solution; assay type: cell-based; details: 72 hours at 20 °C
Procedure: The experiment was performed using 1,3-cyclohexanedione at a concentration of 1 mg/ml. One strain of Salmonella was used in this study. All strains were stored at −80° C. in BHI (Difco, BD, Franklin Lakes, N.J., USA) supplemented […] with 15% glycerine (Merck KGaA, Darmstadt, Germany) and were recovered on blood agar at 37.0±1.0° C. The bacterial culture was transferred into LB broth and was incubated statically overnight at 37.0±1.0° C. to obtain an overnight working culture. 1,3-cyclohexanedione was diluted in LB wo/NaCl at a concentration of 1 mg/ml and divided into 4 tubes. The tubes were heated, for two minutes, to 80° C., 90° C., 100° C. and the last tube was not heated and included as a control. 100 μl from each tube was added to a sterile 96-wells polystyrene microtiter plates (Nunc, Nuncleon, Roskilde, Denmark) together with 30 μl bacterial culture or 30 μl LB^wo/NaCl in the case of the blank controls. The plates were incubated for 72 hours at 20° C. The plate was emptied and washed twice using 200 μl tap water in each well each time. This was followed by the addition of 140 μl 1% Crystal violet to each well and, after 30 minutes, the plate was again emptied and washed 3 times using 200 μl tap water. 140 μl etanol:acetone 70:30 was added and OD595 was measured after 10 minutes. For each strain, the result was calculated by subtracting the median OD595 of the three parallels of the control (test broth only) from the median OD595 of the three parallels of sample. At least two experiments were performed and the average was estimated.

## O=C1CCCC(=O)C1 [1,3-cyclohexanedione]
[1]
  stability of tautomers: stable at least over one day
[2]; 1 mg/ml
  decrease in biofilm formation, percentage of the control: 74%
[2]; 10 mg/ml
  decrease in biofilm formation, percentage of the control: 98%
Salmonella (one strain); 1 mg/ml solution heated to 80 °C for two minutes
  decrease in biofilm formation compared to the control: 38%
Salmonella (one strain); 1 mg/ml solution heated to 90 °C for two minutes
  decrease in biofilm formation compared to the control: 40%
Salmonella (one strain); 1 mg/ml solution heated to 100 °C for two minutes
  decrease in biofilm formation compared to the control: 28%
Salmonella (one strain); 1 mg/ml unheated solution
  decrease in biofilm formation compared to the control: 46%
